Tests used:
coconut LPAAT [1] = target: T1, coconut LPAAT (Cocos nucifera, UniProt Q42670); assay: LPAAT activity assay, coconut P2 membrane preparation; assay type: biochemical; set-up: white endosperm tissue lining the inside of the endocarp can be dissected and collected; from tissue; host or cells: immature coconut endosperm, P2 membrane fraction; settings: P2 membrane preparation; acyl-CoA donor varied, acceptor 12:0-LPA
T1 sequence (Q42670 1-308): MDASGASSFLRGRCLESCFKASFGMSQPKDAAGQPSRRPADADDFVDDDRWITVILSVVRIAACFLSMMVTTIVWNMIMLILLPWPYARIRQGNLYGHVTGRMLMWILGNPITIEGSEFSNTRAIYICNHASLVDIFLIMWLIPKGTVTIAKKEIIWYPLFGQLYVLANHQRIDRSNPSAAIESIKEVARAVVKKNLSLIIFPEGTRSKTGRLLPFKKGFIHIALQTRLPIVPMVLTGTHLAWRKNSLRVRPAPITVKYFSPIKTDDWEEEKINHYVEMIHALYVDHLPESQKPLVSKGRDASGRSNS
Protocol: To assay for LPAAT activity, the sample is incubated with lysophosphatidic acid (LPA) and acyl-coenzyme A (acyl-CoA) substrates in buffered solution. The acyl substituents of the two substrates are chosen to correspond with the specificity of the enzyme being measured. For example, to measure activity of an LPAAT having preference for medium-chain substrates, lauroyl-LPA (lauroyl-lysophosphatidic acid) and lauroyl-CoA may be used, to measure activity of an LPAAT preferring longer-chain acyl groups, oleoyl-LPA and oleoyl-CoA may be used, to measure activity of an LPAAT preferring very-long chain substrate, erucyl-LPA and erucyl-CoA may be used, and so on, depending upon the type of LPAAT to be tested. The acyl group of one substrate is radioactively labeled in order to detect the product formed. In the examples which follow the acyl substituent of the acyl-CoA substrate is radiolabeled with ^14 C in the carboxyl group. LPAAT activity results in transfer of this acyl group from the acyl-CoA "donor" substrate to the LPA "acceptor" substrate, converting the latter into the product, phosphatidic acid (PA). LPAAT activity is measured as the amount of radioactive product formed in a given assay time. The PA product is radioactive as a result of the transferred radiolabeled acyl group at the central carbon atom of the molecule, and the quantity of PA formed may be determined by measuring radioactivity of the PA fraction. For this measurement, the PA is first separated from the acyl-CoA substrate by solvent partitioning, or by thin-layer chromatography (TLC).
20 μl of the sample to be assayed for LPAAT activity is mixed with 217.5 μl of an assay ingredient mixture in a 4-ml, screw-cap vial. […] The incubation takes place in a water bath at 30° C., for 20-30 minutes.
To stop the assay, 0.25 ml of 1M KCl in 0.2M H3 PO4 is added to the vial. At this point, 40 μl BSA (bovine serum albumin, fraction V) at 1 mg/ml are added, followed by 0.75 ml of a solution of 67 μg/ml unlabeled PA (acting as a "carrier" to facilitate partitioning) in chloroform/methanol (2:1, v/v). The chain lengths of the PA acyl groups are chosen to correspond to those used in the assay substrates. Upon thorough mixing of these components the radiolabeled PA product of the LPAAT reaction partitions into the organic phase and away from the unreacted acyl-CoA and LPA. The vial is centrifuged briefly at low speed to facilitate the separation of organic (lower) and aqueous (upper) phases. The aqueous phase is then removed and discarded. The total radioactivity extracted into the organic phase is determined by liquid scintillation counting; a 100 μl sample of the organic phase is transferred to a 20 ml scintillation vial and allowed to dry, and scintillation fluid (3-5 ml) is added to the vial. The radioactivity of the sample, after subtraction of the "minus-enzyme" or "minus-LPA" radioactivities, is taken as an approximate indication of the amount of PA formed in the LPAAT-catalyzed reaction and therefore of LPAAT activity.
A more accurate estimation of the LPAAT activity may be obtained by separating the PA product from these contaminants by TLC. The remaining organic phase is applied to a silica TLC plate. Ascending chromatography is carried out for 50 minutes, using the solvent mixture chloroform/pyridine/88% formic acid (50:30:7, v/v). After the plate has dried, the distribution of radioactivity is visualized and quantitated using an AMBIS radioanalytic imaging system (AMBIS Systems Inc., San Diego, Calif.). From prior application of standard lipid components the Rf of the PA is known. The radioactivity associated with the PA spot is expressed as a percentage of the total radioactivity of the assay sample loaded on the plate. This ratio provides an indication of the proportion of the scintillation counts which represent the PA product, and may be used to correct the counts to obtain the total PA radioactivity formed in the assay. […]

[2] = target: T2, LPAAT of transformant 5511-5 (Cocos nucifera, UniProt Q42670); assay: LPAAT acyl-CoA specificity, P2 preparation of LPAAT-transformed line 5511-5; assay type: biochemical, Rapeseed; settings: acyl-CoA donor varied at 5 μM, acceptor 12:0-LPA; 30 minute reaction
T2 construct: crude P2 membranes, host LPAAT also present
T2 sequence (Q42670 1-308): T1 sequence (Q42670 1-308)
Protocol: Detailed acyl-CoA chain-length specificity analysis of control P2 preparations and LPAAT-transformed line 5511-5 were determined as described above, using the original 30 minute reaction time. The acyl-CoA substrates for this analysis are present in methanol, and thus the assay also had the following modifications. The first solution placed in the assay vial was the volume of each radiolabeled acyl-CoA required for 5 μM final assay concentration. […] After mixing to redissolve the acyl-CoA off the vial wall, the reaction is started by addition of 25 μl of a 5-fold diluted P2 preparation and continued as before. Acyl-CoA substrates used in this analysis were 8:0, 10:0, 12:0, 14:0, 16:0, 18:0, and 18:1. The acceptor substrate in these assays was 12:0-LPA.

coconut LPAAT [3] = target: T1, coconut LPAAT; assay: Acyl-CoA specificity of coconut LPAAT expressed in E. coli (pCGN5505), membrane fractions; assay type: biochemical; set-up: the SalI/BamHI fragment of pCGN5504 containing the entire coconut LPAAT encoding region; made in house; host or cells: E. coli BL21(DE3), membrane fractions; settings: acceptor 12:0-LPA
Protocol: The samples are centrifuged at 12,000 g for 15 minutes. The resulting supernatant fractions are centrifuged for two hours at 134,000 g, and the pelleted membranes suspended in 50 mM HEPES, 200 mM NaCl, 20% (w/v) glycerol, 5 mM β-mercaptoethanol, pH 7.5. Membrane fractions are assayed for acyl-CoA substrate specificities with 12:0-LPA and various acyl-CoA species as described in Example 1. Membrane preparations from cultures of E. coli and from immature coconut endosperm are combined with soybean phospholipids and diluted in 1M NaCl in Buffer A to simulate the pre-assay conditions of the solubilized enzyme.

bay LPAAT = assay: LPAAT activity assay, California bay P2 membrane preparation; assay type: biochemical, Umbellularia californica; settings: P2 membrane preparation; acyl-CoA donor varied, acceptor 12:0-LPA
Protocol: To assay for LPAAT activity, the sample is incubated with lysophosphatidic acid (LPA) and acyl-coenzyme A (acyl-CoA) substrates in buffered solution. The acyl substituents of the two substrates are chosen to correspond with the specificity of the enzyme being measured. […] The acyl group of one substrate is radioactively labeled in order to detect the product formed. In the examples which follow the acyl substituent of the acyl-CoA substrate is radiolabeled with ^14 C in the carboxyl group. LPAAT activity results in transfer of this acyl group from the acyl-CoA "donor" substrate to the LPA "acceptor" substrate, converting the latter into the product, phosphatidic acid (PA). LPAAT activity is measured as the amount of radioactive product formed in a given assay time. The PA product is radioactive as a result of the transferred radiolabeled acyl group at the central carbon atom of the molecule, and the quantity of PA formed may be determined by measuring radioactivity of the PA fraction. For this measurement, the PA is first separated from the acyl-CoA substrate by solvent partitioning, or by thin-layer chromatography (TLC).

Row | LPAAT Activity from Coconut (coconut LPAAT [1]) | Cpm PA Product, 5511-5 [2] [Cpm] | utilization by E. coli expressed coconut LPAAT (coconut LPAAT [3]) | Structure (SMILES) | LPAAT Activity from Bay (bay LPAAT)
1 | 6 pmol PA formed/30 min assay | 454 | some minor activity detectable | CCCCCCCC(=O)SCCNC(=O)CCNC(=O)[C@H](O)C(C)(C)COP(=O)(O)OP(=O)(O)OC[C@H]1O[C@@H](n2cnc3c(N)ncnc32)[C@H](O)[C@@H]1OP(=O)(O)O [8:0] | 13 pmol PA formed/30 min assay
2 | 43 pmol PA formed/30 min assay | 5648 | most active | CCCCCCCCCC(=O)SCCNC(=O)CCNC(=O)[C@H](O)C(C)(C)COP(=O)(O)OP(=O)(O)OC[C@H]1O[C@@H](n2cnc3c(N)ncnc32)[C@H](O)[C@@H]1OP(=O)(O)O [10:0] | 10 pmol PA formed/30 min assay
3 | 238 pmol PA formed/30 min assay | 9337 | most active | CCCCCCCCCCCC(=O)SCCNC(=O)CCNC(=O)[C@H](O)C(C)(C)COP(=O)(O)OP(=O)(O)OC[C@H]1O[C@@H](n2cnc3c(N)ncnc32)[C@H](O)[C@@H]1OP(=O)(O)O [12:0, lauroyl-CoA] | 14 pmol PA formed/30 min assay
4 | 21 pmol PA formed/30 min assay | 4569 | – | CCCCCCCCCCCCCCCC(=O)SCCNC(=O)CCNC(=O)[C@H](O)C(C)(C)COP(=O)(O)OP(=O)(O)OC[C@H]1O[C@@H](n2cnc3c(N)ncnc32)[C@H](O)[C@@H]1OP(=O)(O)O [16:0] | 6 pmol PA formed/30 min assay
5 | 9 pmol PA formed/30 min assay | 8430 | – | CCCCCCCC/C=C\CCCCCCCC(=O)SCCNC(=O)CCNC(=O)[C@H](O)C(C)(C)COP(=O)(O)OP(=O)(O)OC[C@H]1O[C@@H](n2cnc3c(N)ncnc32)[C@H](O)[C@@H]1OP(=O)(O)O [18:1, oleoyl-CoA] | 5 pmol PA formed/30 min assay

Row | Structure (SMILES) | LPAAT Activity from Coconut (coconut LPAAT [1]) | Cpm PA Product, 5511-5 [2] [Cpm] | utilization by E. coli expressed coconut LPAAT (coconut LPAAT [3]) | LPAAT Activity from Bay (bay LPAAT)
6 | CCCCCCCCCCCCCC(=O)SCCNC(=O)CCNC(=O)[C@H](O)C(C)(C)COP(=O)(O)OP(=O)(O)OC[C@H]1O[C@@H](n2cnc3c(N)ncnc32)[C@H](O)[C@@H]1OP(=O)(O)O [14:0] | 61 pmol PA formed/30 min assay | 5080 | most active | 5 pmol PA formed/30 min assay

Reference: patent publication US5968791A, “Plant lysophosphatidic acid acyltransferases” (Calgene, Inc., priority 1995, dated 1999)
